Here are results for two molecules from US11274332B2, “Methods of administering 3,4-diaminopyridine” (SERB SA, priority 2011, dated 2022).

For data set [1], the target named is T1, hKv1.7 (Homo sapiens, UniProt Q96RP8).
T1 construct: expressed in transfected cells; host or cells: CHO cells (transient transfection)
Kind of data set: Whole cell patch clamp inhibition of hKv1.7 current in transiently transfected CHO cells (Example 5). Format: cell-based. The settings on record: 10,000 μM in HB-PS. The protocol: Chemicals used in solution preparation were purchased from Sigma-Aldrich (St. Louis, Mo.), unless otherwise noted, and were of ACS reagent grade purity or higher. Stock solutions of each test article (100.104 mM and 1.00 mM 3,4-DAP phosphate and 100.023 mM and 336.335 mM N-(4-aminopyridin-3-yl) acetamide HCl) were prepared in sterile water, stored refrigerated and used within one day. […] All test article solutions contained 3% sterile water. The test articles were prepared in sufficient volume to run the assay (typically 50 mL).
CHO cells, transiently transfected with hKv1.7, were cryopreserved in 90% FBS and 10% DMSO. Frozen vials of cells were thawed rapidly in a 37° C. water bath. Cells were transferred to a 15 mL conical tube, 10 mL of growth media (Ham's/F12-PS/10% FBS) was added, the suspension was gently mixed and the tube was centrifuged at approximately 250×g for 5 min. The medium was removed, the cell pellet was resuspended in 20 mL of medium, and cells were triturated to disperse cell clumps. For electrophysiology use, 2 mL of the cell suspension was plated in each 35 mm cell culture dish. Recording began 2-3 hours after plating once the cells settled out of the media and adhered to the bottom of the culture dish. […]
Cells were transferred to the recording chamber and superfused with vehicle control solution. […] Onset and steady state inhibition of hKv1.7 current due to the test article was measured using a pulse pattern with fixed amplitudes (depolarization: +10 mV amplitude, 300 ms duration) repeated at 10-second intervals from a holding potential of −80 mV. Current amplitude was measured at the end of the step to +10 mV. Current was monitored until a new steady state was achieved. […] The IC50 for sustained current was calculated for 3,4-DAP phosphate salt.
For 3,4-DAP phosphate salt, the concentration-response relationship was evaluated at seven concentrations (1, 10, 30, 100, 300, 1000 and 3000 μM) and for N-(4-aminopyridin-3-yl) acetamide HCl salt, the concentration-response relationship was evaluated at three concentrations (100, 1000 and 3000 μM).

Data set [2] in a line: Rat PK study, IV and oral TID amifampridine phosphate (Example 4). The format is in vivo. To be noted: rat, after amifampridine phosphate. How it is done:
The objective of this study was to determine the absolute bioavailability of amifampridine phosphate and the pharmacokinetics of amifampridine and its 3-N-acetyl metabolite upon single-dose IV and single-day oral dose (TID) administration.
Amifampridine phosphate was administered by IV bolus at 0.8 mg/kg (in saline) to 6 rats/sex and by oral gavage (in water) TID (approximately 6 hours apart) at dose levels of 2, 8, and 25 mg/kg/dose (equivalent to 6, 24, and 75 mg/kg/day) to 12 rats/sex/group, with oral Dose 1 given to fasted rats and Dose 2 and 3 with food ad libitum. For IV bolus dose and oral Dose 1 (dose administration No. 1), blood samples were collected from three animals/sex/timepoint at predose and 0.083 (IV only), 0.17, 0.25, 0.33, 0.5, 0.75, 1, 1.25 (IV only), 1.5, 2, 2.5, 3, and 6 hours post-dose; 0.17, 0.5, and 6 hours following the second oral dose (dose administration No. 2); and 0.17, 0.25, 0.33, 0.5, 0.75, 1, 1.5, 2, 3, 4, 6, 8, and 10 hours following the third oral dose (dose administration No. 3). The second and third oral doses were given at 6 and 12 hours, respectively, after the first dose. LC-MS/MS was used to quantify amifampridine, 3-N-acetyl and 4-N-acetyl amifampridine metabolites in rat plasma samples. […] Noncompartmental analysis was applied to the mean plasma amifampridine and 3-N-acetyl metabolite concentration data for male and female rats. […]

Bounds are passed on as bounds.

T1 sequence (Q96RP8 whole entry): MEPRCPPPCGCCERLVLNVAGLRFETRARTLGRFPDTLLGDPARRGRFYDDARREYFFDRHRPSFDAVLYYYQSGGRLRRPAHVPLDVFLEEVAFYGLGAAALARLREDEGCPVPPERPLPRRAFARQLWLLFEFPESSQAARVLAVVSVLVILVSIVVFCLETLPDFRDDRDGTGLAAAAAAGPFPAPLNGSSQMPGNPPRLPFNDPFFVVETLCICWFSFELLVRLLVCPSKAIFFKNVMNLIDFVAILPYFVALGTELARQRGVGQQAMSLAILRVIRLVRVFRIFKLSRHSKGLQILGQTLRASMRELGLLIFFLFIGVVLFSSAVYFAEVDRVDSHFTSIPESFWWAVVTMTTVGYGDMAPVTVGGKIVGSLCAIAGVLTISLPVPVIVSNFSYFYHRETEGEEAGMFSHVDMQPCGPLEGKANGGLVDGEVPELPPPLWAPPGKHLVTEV

As to `CC(=O)Nc1cnccc1N.Cl` [N-(4-aminopyridin-3-yl) acetamide HCl], in data set [1], the “solubility in test formulation” value was “visible precipitate was observed”. On to `CC(=O)Nc1ccncc1N` [4-N-acetyl metabolite], for which the Cmax in plasma in data set [2] was less than 25 ng/mL.
